A value given as a limit tells only on which side of the number the result lay.

The target in the first experiment is T1, Human Recombinant Matriptase 2 (Homo sapiens, UniProt Q8IU80).
T1 construct: made in house
T1 sequence (Q8IU80 1-811): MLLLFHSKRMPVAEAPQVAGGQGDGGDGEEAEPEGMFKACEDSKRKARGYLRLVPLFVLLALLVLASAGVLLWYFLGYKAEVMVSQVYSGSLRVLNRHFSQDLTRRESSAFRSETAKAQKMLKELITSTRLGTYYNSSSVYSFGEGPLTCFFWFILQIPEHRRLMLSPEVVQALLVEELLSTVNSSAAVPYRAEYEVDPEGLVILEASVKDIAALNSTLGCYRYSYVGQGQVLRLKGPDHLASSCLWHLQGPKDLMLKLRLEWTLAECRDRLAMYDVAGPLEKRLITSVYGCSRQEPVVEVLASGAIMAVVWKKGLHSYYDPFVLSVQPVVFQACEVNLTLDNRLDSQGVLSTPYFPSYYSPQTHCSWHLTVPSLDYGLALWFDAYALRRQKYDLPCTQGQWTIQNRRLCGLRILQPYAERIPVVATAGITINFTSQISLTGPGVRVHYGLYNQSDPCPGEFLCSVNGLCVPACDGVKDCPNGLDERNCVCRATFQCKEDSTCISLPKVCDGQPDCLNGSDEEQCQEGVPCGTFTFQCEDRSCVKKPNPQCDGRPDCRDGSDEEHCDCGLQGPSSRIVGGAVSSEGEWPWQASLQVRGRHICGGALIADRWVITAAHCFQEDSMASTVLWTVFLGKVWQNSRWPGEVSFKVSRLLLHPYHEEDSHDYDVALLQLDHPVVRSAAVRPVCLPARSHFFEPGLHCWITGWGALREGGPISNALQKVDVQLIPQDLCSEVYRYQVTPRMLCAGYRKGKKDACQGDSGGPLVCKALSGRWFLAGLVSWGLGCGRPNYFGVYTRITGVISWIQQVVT
Nature of the experiment: Matriptase 2 inhibition, fluorescence based assay (Method I). Type of experiment: biochemical. The following applies: Table A; Ki of Matriptase-2; read-out: Mat-2 Ki. An outline of the steps:
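In-house recombinant enzyme (3.5 nM), preincubated 30 min with compound, then Boc-Gln-Ala-Arg-AMC substrate (62 μM) in 50 mM Tris pH 7.5, 150 mM NaCl, 0.01% gelatin, 1% DMSO, 25 °C. Fluorescence (Ex 360/Em 480 nm) read 60 min after substrate; IC50 from variable-slope sigmoidal fit of % inhibition.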
For `C[C@H](COC(=O)c1cc2ccc(CN)nc2n1Cc1cc(NS(=O)(=O)Cc2ccccc2)cc2ccccc12)CN1CCOCC1` (racemic) [Compound 145, rac-(2R)-2-methyl-3-(morpholin-4-yl)propyl 6-(aminomethyl)-1-{[3-(phenylmethanesulfon-amido)naphthalen-1-yl]-methyl}-1H-pyrrolo[2,3-b]pyridine-2-carboxylate], the inhibitory constant (Ki) is not above 100 nM.

For `NCc1ccc2cc(C(=O)OCC3CCN(C=O)CC3)n(Cc3cc(NS(=O)(=O)Cc4ccsc4)cc4ccccc34)c2n1` [Compound 164, (1-formylpiperidin-4-yl)methyl 6-(aminometh-yl)-1-({3-[(thiophen-3-yl)methanesulfonamido]-naphthalen-1-yl}methyl)-1H-pyrrolo[2,3-b]pyr-idine-2-carboxylate], the inhibition constant (Ki) was not above 100 nM.

Take `NCc1ccc2cc(C(=O)O)n(Cc3cc(NS(=O)(=O)Cc4cccs4)cc4ccccc34)c2n1` [Compound 153, 6-(aminomethyl)-1-({3-[(thiophen-2-yl)methane-sulfonamido]naphthalen-1-yl}methyl)-1H-pyr-rolo[2,3-b]pyridine-2-carboxylic acid]: the Ki was not above 100 nM.

With `NCc1ccc2cc(C(=O)NCCN3CCOCC3)n(Cc3cc(NS(=O)(=O)Cc4ccccc4)cc4ccccc34)c2n1` [Compound 60, 6-(aminomethyl)-N-[2-(morpholin-4-yl)ethyl]-1-{[3-(phenylmethane-sulfonamido)naphthalen-1-yl]methyl}-1H-pyr-rolo[2,3-b]pyridine-2-carboxamide], the inhibition constant (Ki) was not above 100 nM.

With `CN1CCC(CNC(=O)c2cc3ccc(CN)nc3n2Cc2cc(NS(=O)(=O)Cc3ccccc3)cc3ccccc23)CC1` [Compound 12, 6-(aminomethyl)-N-[(1-methylpiperidin-4-yl)-methyl]-1-{[3-(phenyl-methanesulfonamido)-naphthalen-1-yl]meth-yl}-1H-pyrrolo[2,3-b]-pyridine-2-carboxamide], the Ki is not above 100 nM.

Consider `CN(Cc1nccn1C)C(=O)c1cc2ccc(CN)nc2n1Cc1cc(NS(=O)(=O)Cc2ccsc2)cc2ccccc12` [Compound 181, 6-(aminomethyl)-N-methyl-N-[(1-methyl-1H-imidazol-2-yl)meth-yl]-1-({3-{(thiophen-3-yl)methanesulfonamido]-naphthalen-1-yl}methyl)-1H-pyrrolo[2,3-b]pyr-idine-2-carboxamide], for which the inhibitory constant (Ki) was 100 to 500 nM.

Turning to `CN1CCO[C@@H](COC(=O)c2cc3ccc(CN)nc3n2Cc2cc(NS(=O)(=O)Cc3ccccc3)cc3ccccc23)C1` (racemic) [Compound 64, (4-methylmorpholin-2-yl)methyl 6-(aminometh-yl)-1-{[3-(phenylmeth-anesulfonamido)naph-thalen-1-yl]methyl}-1H-pyrrolo[2,3-b]pyridine-2-carboxylate], the Ki was not above 100 nM.

The same experiment, now with this note: Table A; Ki of Matriptase-2 given as class symbols; read-out: Mat-2 Ki.
For the molecule `Cc1ccccc1CS(=O)(=O)Nc1cc(Cn2c(C(=O)O)cc3ccc(CN)nc32)c2ccccc2c1` [Compound 212, 6-(aminomethyl)-1-({3-[(2-methylphenyl)meth-anesulfonamido]naph-thalen-1-yl}methyl)-1H-pyrrolo[2,3-b]pyridine-2-carboxylic acid], the Ki was not above 100 nM.

With `NCc1ccc2cc(C(=O)O)n(Cc3cc(NS(=O)(=O)C4CCCCC4)cc4ccccc34)c2n1` [Compound 279, 6-(aminomethyl)-1-[(3-cyclohexanesulfon-amidonaphthalen-1-yl)-methyl]-1H-pyrrolo[2,3-b]pyridine-2-carboxylic acid], the Ki is 500 to 3000 nM.

As for `CN1CCC(COC(=O)c2cc3ccc(CN)cc3n2Cc2cc(NS(=O)(=O)Cc3ccsc3)cc3ccccc23)CC1` [Compound 374, (1-methylpiperidin-4-yl)-methyl 6-(aminomethyl)-1-({3-[(thiophen-3-yl)-methanesulfonamido]-naphthalen-1-yl}methyl)-1H-indole-2-carboxylate], the inhibition constant Ki is not above 100 nM.
